# Test results published in PubChem BioAssay AID2060622 (Molecular Pharmacology Branch, DTP, NCI, 2025).
# Tested on: 242566-281-R-J2-PDC complex spheroid viability
# Test: Anticancer human tumor 242566-281-R-J2-PDC patient-derived pancreatic carcinoma cell line growth inhibition [CLK]
# Details: for IC50: curve of first compound; for viability, T/C: stronger effect = lower value
# In short: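 Patient-derived tumor cells grown as complex spheroids with HUVEC endothelial cells and mesenchymal stem cells, treated with drug combinations. Concentrations descend in half-log steps from near clinical Cmax, or from 10 microM if Cmax unknown.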
# [1] = second compound 0.0316 µM, first compound 0.00949 µM
# [2] = second compound 0.0316 µM, first compound 0.03 µM
# [3] = second compound 0.0316 µM, first compound 0.0949 µM
# [4] = second compound 0.0316 µM, first compound 0.3 µM
# [5] = second compound 0.1 µM, first compound 0.00949 µM
# [6] = second compound 0.1 µM, first compound 0.03 µM
# [7] = second compound 0.1 µM, first compound 0.0949 µM
# [8] = second compound 0.1 µM, first compound 0.3 µM
# [9] = second compound 0.316 µM, first compound 0.00949 µM
# [10] = second compound 0.316 µM, first compound 0.03 µM
# [11] = second compound 0.316 µM, first compound 0.0949 µM
# [12] = second compound 0.316 µM, first compound 0.3 µM
# [13] = second compound 1 µM, first compound 0.00949 µM
# [14] = second compound 1 µM, first compound 0.03 µM
# [15] = second compound 1 µM, first compound 0.0949 µM
# [16] = second compound 1 µM, first compound 0.3 µM
# [17] = second compound 3.16 µM, first compound 0.00949 µM
# [18] = second compound 3.16 µM, first compound 0.03 µM
# [19] = second compound 3.16 µM, first compound 0.0949 µM
# [20] = second compound 3.16 µM, first compound 0.3 µM
# [21] = second compound 10 µM, first compound 0.00949 µM
# [22] = second compound 10 µM, first compound 0.03 µM
# [23] = second compound 10 µM, first compound 0.0949 µM
# [24] = second compound 10 µM, first compound 0.3 µM
# 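Further: spheroids exposed to compounds for 7 days before readout.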
# 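Wherever viability, T/C is given: 100% = DMSO vehicle control wells.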
smiles,measurement,setting,value
C=CC(=O)Nc1cc(Nc2nccc(-c3cn(C)c4ccccc34)n2)c(OC)cc1N(C)CCN(C)C + CNC(=O)c1ccc(Nc2nc(OC3CCCC3)c3c(-c4ccc5nc(C)oc5c4)c[nH]c3n2)c(OC)c1,IC50,second compound 0.0316 µM,> 300 nM
same,IC50,second compound 0.1 µM,> 300 nM
same,IC50,second compound 0.316 µM,> 300 nM
same,IC50,second compound 1 µM,> 300 nM
same,IC50,second compound 3.16 µM,2.72 nM
same,IC50,second compound 10 µM,3.17 nM
same,"viability, T/C","second compound 0.0316 µM, first compound 0.000949 µM",83.7%
same,"viability, T/C","second compound 0.0316 µM, first compound 0.003 µM",97%
same,"viability, T/C",[1],101%
same,"viability, T/C",[2],108%
same,"viability, T/C",[3],110%
same,"viability, T/C",[4],92.8%
same,"viability, T/C","second compound 0.1 µM, first compound 0.000949 µM",96.1%
same,"viability, T/C","second compound 0.1 µM, first compound 0.003 µM",81.7%
same,"viability, T/C",[5],80.1%
same,"viability, T/C",[6],99.5%
same,"viability, T/C",[7],95.5%
same,"viability, T/C",[8],81.4%
same,"viability, T/C","second compound 0.316 µM, first compound 0.000949 µM",89.4%
same,"viability, T/C","second compound 0.316 µM, first compound 0.003 µM",76%
same,"viability, T/C",[9],72.2%
same,"viability, T/C",[10],77.6%
same,"viability, T/C",[11],81.4%
same,"viability, T/C",[12],80.2%
same,"viability, T/C","second compound 1 µM, first compound 0.000949 µM",69.7%
same,"viability, T/C","second compound 1 µM, first compound 0.003 µM",59%
same,"viability, T/C",[13],58.9%
same,"viability, T/C",[14],61.8%
same,"viability, T/C",[15],63.7%
same,"viability, T/C",[16],57.5%
same,"viability, T/C","second compound 3.16 µM, first compound 0.000949 µM",55.9%
same,"viability, T/C","second compound 3.16 µM, first compound 0.003 µM",50%
same,"viability, T/C",[17],45.7%
same,"viability, T/C",[18],51.9%
same,"viability, T/C",[19],46.4%
same,"viability, T/C",[20],48.8%
same,"viability, T/C","second compound 10 µM, first compound 0.000949 µM",49.1%
same,"viability, T/C","second compound 10 µM, first compound 0.003 µM",51.2%
same,"viability, T/C",[21],51.1%
same,"viability, T/C",[22],47.7%
same,"viability, T/C",[23],43.1%
same,"viability, T/C",[24],44.9%
NC(=O)C(=Cn1cnc(-c2cc(C(F)(F)F)cc(C(F)(F)F)c2)n1)c1cncnc1 + CNC(=O)c1ccc(Nc2nc(OC3CCCC3)c3c(-c4ccc5nc(C)oc5c4)c[nH]c3n2)c(OC)c1,IC50,second compound 0.0316 µM,> 3000 nM
same,IC50,second compound 0.1 µM,> 3000 nM
same,IC50,second compound 0.316 µM,1980 nM
same,IC50,second compound 1 µM,758 nM
same,IC50,second compound 3.16 µM,409 nM
same,IC50,second compound 10 µM,308 nM
same,"viability, T/C",[1],119%
same,"viability, T/C",[2],129%
same,"viability, T/C",[3],128%
same,"viability, T/C",[4],141%
same,"viability, T/C","second compound 0.0316 µM, first compound 0.949 µM",109%
same,"viability, T/C","second compound 0.0316 µM, first compound 3 µM",57.1%
same,"viability, T/C",[5],109%
same,"viability, T/C",[6],125%
same,"viability, T/C",[7],130%
same,"viability, T/C",[8],129%
same,"viability, T/C","second compound 0.1 µM, first compound 0.949 µM",98%
same,"viability, T/C","second compound 0.1 µM, first compound 3 µM",51.1%
same,"viability, T/C",[9],106%
same,"viability, T/C",[10],91.5%
same,"viability, T/C",[11],117%
same,"viability, T/C",[12],122%
same,"viability, T/C","second compound 0.316 µM, first compound 0.949 µM",69.1%
same,"viability, T/C","second compound 0.316 µM, first compound 3 µM",39.2%
same,"viability, T/C",[13],87.2%
same,"viability, T/C",[14],99.1%
same,"viability, T/C",[15],87.2%
same,"viability, T/C",[16],86.4%
same,"viability, T/C","second compound 1 µM, first compound 0.949 µM",41.2%
same,"viability, T/C","second compound 1 µM, first compound 3 µM",12.4%
same,"viability, T/C",[17],77.4%
same,"viability, T/C",[18],82.6%
same,"viability, T/C",[19],78.3%
same,"viability, T/C",[20],57.9%
same,"viability, T/C","second compound 3.16 µM, first compound 0.949 µM",25.8%
same,"viability, T/C","second compound 3.16 µM, first compound 3 µM",5.98%
same,"viability, T/C",[21],72.5%
same,"viability, T/C",[22],70.6%
same,"viability, T/C",[23],71.8%
same,"viability, T/C",[24],49.8%
same,"viability, T/C","second compound 10 µM, first compound 0.949 µM",17.3%
same,"viability, T/C","second compound 10 µM, first compound 3 µM",4.4%
Nc1ccccc1NC(=O)c1ccc(CNC(=O)OCc2cccnc2)cc1 + CNC(=O)c1ccc(Nc2nc(OC3CCCC3)c3c(-c4ccc5nc(C)oc5c4)c[nH]c3n2)c(OC)c1,IC50,second compound 0.0316 µM,7700 nM
same,IC50,second compound 0.1 µM,7540 nM
same,IC50,second compound 0.316 µM,5800 nM
same,IC50,second compound 1 µM,2700 nM
same,IC50,second compound 3.16 µM,1670 nM
same,IC50,second compound 10 µM,< 31.6 nM
same,"viability, T/C","second compound 0.0316 µM, first compound 0.0316 µM",86.9%
same,"viability, T/C","second compound 0.0316 µM, first compound 0.1 µM",101%
same,"viability, T/C","second compound 0.0316 µM, first compound 0.316 µM",101%
same,"viability, T/C","second compound 0.0316 µM, first compound 1 µM",149%
same,"viability, T/C","second compound 0.0316 µM, first compound 3.16 µM",116%
same,"viability, T/C","second compound 0.0316 µM, first compound 10 µM",32.2%
same,"viability, T/C","second compound 0.1 µM, first compound 0.0316 µM",81.1%
same,"viability, T/C","second compound 0.1 µM, first compound 0.1 µM",104%
same,"viability, T/C","second compound 0.1 µM, first compound 0.316 µM",103%
same,"viability, T/C","second compound 0.1 µM, first compound 1 µM",128%
same,"viability, T/C","second compound 0.1 µM, first compound 3.16 µM",109%
same,"viability, T/C","second compound 0.1 µM, first compound 10 µM",32.1%
same,"viability, T/C","second compound 0.316 µM, first compound 0.0316 µM",89.6%
same,"viability, T/C","second compound 0.316 µM, first compound 0.1 µM",78%
same,"viability, T/C","second compound 0.316 µM, first compound 0.316 µM",85.6%
same,"viability, T/C","second compound 0.316 µM, first compound 1 µM",94.7%
same,"viability, T/C","second compound 0.316 µM, first compound 3.16 µM",80.8%
same,"viability, T/C","second compound 0.316 µM, first compound 10 µM",22.2%
same,"viability, T/C","second compound 1 µM, first compound 0.0316 µM",75.7%
same,"viability, T/C","second compound 1 µM, first compound 0.1 µM",70.2%
same,"viability, T/C","second compound 1 µM, first compound 0.316 µM",61.8%
same,"viability, T/C","second compound 1 µM, first compound 1 µM",73.4%
same,"viability, T/C","second compound 1 µM, first compound 3.16 µM",46.8%
same,"viability, T/C","second compound 1 µM, first compound 10 µM",14%
same,"viability, T/C","second compound 3.16 µM, first compound 0.0316 µM",60.4%
same,"viability, T/C","second compound 3.16 µM, first compound 0.1 µM",52.9%
same,"viability, T/C","second compound 3.16 µM, first compound 0.316 µM",52.5%
same,"viability, T/C","second compound 3.16 µM, first compound 1 µM",63.9%
same,"viability, T/C","second compound 3.16 µM, first compound 3.16 µM",40.5%
same,"viability, T/C","second compound 3.16 µM, first compound 10 µM",10.3%
same,"viability, T/C","second compound 10 µM, first compound 0.0316 µM",50%
same,"viability, T/C","second compound 10 µM, first compound 0.1 µM",44.4%
same,"viability, T/C","second compound 10 µM, first compound 0.316 µM",48.6%
same,"viability, T/C","second compound 10 µM, first compound 1 µM",54%
same,"viability, T/C","second compound 10 µM, first compound 3.16 µM",37.6%
same,"viability, T/C","second compound 10 µM, first compound 10 µM",7.66%
